The target of data set [1] is T1, soluble guanylate cyclase (GUCYA3/GUCYB3) overexpressed in CHO cells (Homo sapiens, UniProt Q02108+Q02153).
T1 construct: expressed in transfected cells
T1 sequence (Q02108 1-690 partner): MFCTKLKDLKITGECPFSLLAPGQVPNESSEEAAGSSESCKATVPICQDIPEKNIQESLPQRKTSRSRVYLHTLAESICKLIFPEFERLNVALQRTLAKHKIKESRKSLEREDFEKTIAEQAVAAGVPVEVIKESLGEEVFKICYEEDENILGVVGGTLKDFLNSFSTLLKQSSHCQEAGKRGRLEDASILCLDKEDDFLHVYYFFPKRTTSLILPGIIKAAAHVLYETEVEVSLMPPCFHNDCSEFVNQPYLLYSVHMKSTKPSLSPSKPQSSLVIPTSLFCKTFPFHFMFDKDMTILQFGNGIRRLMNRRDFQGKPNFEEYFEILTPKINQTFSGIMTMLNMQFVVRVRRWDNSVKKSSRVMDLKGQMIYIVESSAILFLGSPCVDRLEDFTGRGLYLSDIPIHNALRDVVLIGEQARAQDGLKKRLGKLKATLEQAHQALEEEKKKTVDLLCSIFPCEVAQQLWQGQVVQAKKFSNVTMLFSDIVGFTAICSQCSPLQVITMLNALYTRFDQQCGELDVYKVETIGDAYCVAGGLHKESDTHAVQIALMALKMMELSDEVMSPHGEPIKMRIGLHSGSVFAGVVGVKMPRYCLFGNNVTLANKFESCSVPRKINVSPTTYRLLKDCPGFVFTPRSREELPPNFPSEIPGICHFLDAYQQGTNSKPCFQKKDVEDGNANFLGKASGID
T1 sequence (Q02153 1-619): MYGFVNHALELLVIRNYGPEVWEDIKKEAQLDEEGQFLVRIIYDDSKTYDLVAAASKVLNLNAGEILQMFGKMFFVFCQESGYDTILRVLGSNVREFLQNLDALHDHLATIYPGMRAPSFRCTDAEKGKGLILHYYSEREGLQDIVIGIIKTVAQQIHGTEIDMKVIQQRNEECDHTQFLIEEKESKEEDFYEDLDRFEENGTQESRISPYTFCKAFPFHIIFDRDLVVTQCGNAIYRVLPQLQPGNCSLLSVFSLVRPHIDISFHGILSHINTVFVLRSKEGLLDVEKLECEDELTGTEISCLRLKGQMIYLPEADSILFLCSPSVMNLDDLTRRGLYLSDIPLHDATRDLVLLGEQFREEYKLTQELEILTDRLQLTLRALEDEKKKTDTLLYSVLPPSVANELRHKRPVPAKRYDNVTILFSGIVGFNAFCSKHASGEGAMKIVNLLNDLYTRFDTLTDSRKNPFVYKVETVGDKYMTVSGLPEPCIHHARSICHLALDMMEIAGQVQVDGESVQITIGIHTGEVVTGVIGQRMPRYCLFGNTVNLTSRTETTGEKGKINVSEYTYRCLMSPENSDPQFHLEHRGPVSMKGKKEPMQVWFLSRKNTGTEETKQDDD
The data set is described as follows: CHO cellular assay (cGMP production, HTRF). The format is cell-based. The method, boiled down: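 Stably transfected CHO-K1 clone expressing human sGC α/β subunits, treated 1 h at room temperature with compounds in HBSS with 0.1% BSA, 1 mM IBMX and 20 uM ODQ (0.5% DMSO). cGMP measured by HTRF and interpolated from standard curve. EC50 from 4-parameter sigmoidal fit.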
(In TR-FRET formats the signal depends on donor and acceptor labels being close together.)

A short description of data set [2]: Pharmacokinetic clearance in intravenously dosed rats. It counts as in vivo. The following applies: male, Sprague-Dawley, rat, whole blood, iv, 0.5 mg/kg. The method, then:
Sprague-Daley rats were administered sGC activators intravenously to assess the systemic clearance rates of the compounds from blood by non-compartmental analysis. Compounds with high clearance rates may be less prone to exert unwanted systemic (non-local) pharmocoligcal effects, which may be a benefical property for a compound intended to be dosed via topical ocular administration with the aim of exerting a pharmacological reponse locally in the eye.
In order to assess the pharmacokinetic parameters, male Sprague-Dawley rats were given 1 mL/Kg of the dosing solution (delineated in the table below) containing a test article (0.5 mg/kg) per kg of body weight via slow intravenous injection into an indwelling jugular vein catheter in a discrete PK study. Alternatively, male Sprague-Dawley rats were given 1 mL/Kg of the dosing solution containing three test articles (0.5 mg/kg each, 1.5 mg/kg total) per kg of body weight via slow intravenous injection into an indwelling jugular vein catheter in a cassette PK study. Diet and water was provided ad libitum without exception. At specified time following a single intravenous bolus injection, approximately 100 μL of whole blood was collected from indwelling catheter in jugular vein. The blood was stored frozen at −20° C. before an LC-MS/MS method was used to quantitate drug levels in the blood. All pharmacokinetic (PK) parameters were derived from concentration-time data by non-compartmental analyses using WinNonlin Phoenix version 6.4 (Certara, St. Louis, Mo.). For the intravenous dose, the concentration of unchanged compound at time 0 was calculated based on a log-linear regression of first two data points to back-extrapolate C(0). The area under the concentration-time curve was calculated using the linear trapezoidal rule.
Data in Table 2 collected using the assay of Biological Example 2 compares compounds from the present invention to other sGC activators previously disclosed PCT/IB2015/055006 filed Jul.

Setting [3] is: CHO cellular assay, as repeated in Table 2, read-out: EC50 from biological Example #1.
Where [4] appears, read: i.v. 0.5 mg/kg, Discrete - D (10% propylene glycol, 10% Solutol HS15, PBS).
The mark [5] stands for this setting: CHO GUCY clone 8E10, assay buffer with 1 mM IBMX, 20 uM ODQ, 1 h at room temperature, cGMP HTRF, quantification limit 0.0005 μM, read-out: Mean EC50.

Read-outs that look alike come from different tables or passages of the source.

As for `CCc1cc(NC2CCc3cccc(-c4cccc(-n5ncc(C(=O)O)c5CC)n4)c32)ccc1C1=CCN(C(=O)C2CC2)CC1` (single isomer, unassigned; (+)) [(+)-1-(6-(3-((4-(1-(cyclopropanecarbonyl)-1,2,3,6-tetrahydropyridin-4-yl)-3-ethylphenyl)amino)-2,3-dihydro-1H-inden-4-yl)pyridin-2-yl)-5-ethyl-1H-pyrazole-4-carboxylic acid, reference compound], the EC50 in data set [1] (setting [3]) was under 0.5 nM. Besides, the clearance in data set [2] (setting [4]) is 38 mL/min/kg.

Consider `CCc1cc(NC2CCc3cccc(-c4cccc(-n5ncc(C(=O)O)c5OC)c4)c32)ccc1C1CCN(C(=O)[C@H](C)O)CC1` (single isomer, unassigned; (+)) [Example 4A], for which the EC50 in data set [1] (setting [5]) and in data set [1] (setting [3]) was under 0.5 nM throughout. Besides, the clearance in data set [2] (i.v. 0.5 mg/kg, Discrete - C (20% PEG 300, 10% Solutol HS15, PBS)) was over 100 mL/min/kg.

`CCc1cc(NC2CCc3cccc(-c4cccc(-n5ncc(C(=O)O)c5N)n4)c32)ccc1C1CCN(C(=O)C2CC2)CC1` (single isomer, unassigned; (+)) [Example 18A, (+)-5-Amino-1-(6-(3-((4-(1-(cyclopropanecarbonyl)piperidin-4-yl)-3-ethylphenyl)amino)-2,3-dihydro-1H-inden-4-yl)pyridin-2-yl)-1H-pyrazole-4-carboxylic acid]: the EC50 in data set [1] (setting [5]) and in data set [1] (setting [3]) was 7 nM throughout. The molecule further came in with a clearance in data set [2] (setting [4]) of 98 mL/min/kg.

For `Cc1cc(C2CCN(C(=O)[C@H](C)O)CC2)ccc1NC1CCc2cccc(-c3cccc(-n4ncc(C(=O)O)c4C)n3)c21` (single isomer, unassigned; (+)) [reference compound], the EC50 in data set [1] (setting [3]) is under 0.5 nM. This molecule came in with a clearance in data set [2] (i.v. 0.5 mg/kg each, three test articles, Cassette - E (10% propylene glycol, 10% Solutol HS15, PBS)) of 48.3 mL/min/kg.

For the molecule `CCc1cc(C[C@H]2CCc3cccc(-c4cccc(-n5ncc(C(=O)O)c5OC)c4)c32)ccc1C1CCN(C(=O)C2CC2)CC1` [Example 1A, (+)-(R)-1-(3-(3-(4-(1-(Cyclopropanecarbonyl)piperidin-4-yl)-3-ethylbenzyl)-2,3-dihydro-1H-inden-4-yl)phenyl)-5-methoxy-1H-pyrazole-4-carboxylic acid], the EC50 in data set [1] (setting [5]) and in data set [1] (setting [3]) was under 0.6 nM each time. In data set [2] (i.v. 0.5 mg/kg, Discrete - A (10% propylene glycol, 1 eq NaOH, 25% of 20% Solutol HS15, PBS)), this molecule yielded a clearance of over 100 mL/min/kg.

Consider `CCc1cc(N[C@H]2CCc3cccc(-c4cccc(-n5ncc(C(=O)O)c5OC)c4)c32)ccc1C1CCN(C(=O)C2CC2)CC1` [Example 3A, (+)-(S)-1-(3-(3-((4-(1-(Cyclopropanecarbonyl)piperidin-4-yl)-3-ethylphenyl)amino)-2,3-dihydro-1H-inden-4-yl)phenyl)-5-methoxy-1H-pyrazole-4-carboxylic acid], for which the EC50 in data set [1] (setting [5]) and in data set [1] (setting [3]) was under 0.5 nM throughout. In data set [2] (i.v. 0.5 mg/kg, Discrete - B (20% PEG 300, 1 eq NaOH, 10% Solutol HS15, PBS)), this molecule had a clearance of over 100 mL/min/kg.

As to `CCc1cc(O[C@H]2CCc3cccc(-c4cccc(-n5ncc(C(=O)O)c5OC)c4)c32)ccc1C1CCN(C(=O)C2CC2)CC1` [Example 5, (+)-(S)-1-(3-(3-(4-(1-(Cyclopropanecarbonyl)piperidin-4-yl)-3-ethylphenoxy)-2,3-dihydro-1H-inden-4-yl)phenyl)-5-methoxy-1H-pyrazole-4-carboxylic acid], the EC50 in data set [1] (setting [5]) and in data set [1] (setting [3]) was under 0.5 nM in each case. The molecule further displayed a clearance in data set [2] (setting [4]) of 89 mL/min/kg.

The EC50 is the concentration at which the effect is half-maximal. As usually defined, the clearance is the volume of plasma or blood freed of the substance per unit of time. Read a high clearance as a high capacity for elimination.
